Entries after “also recorded” stand apart in the source; their conditions may differ. Where two headings read alike, the source gives them in different places.
Key:
FGFR-1 = FGFR-1 (Mus musculus, UniProt P16092); assay: Binding of 125I-bFGF to CHO cells expressing FGFR-1
Protocol: The binding medium was discarded and the cells were washed once with ice-cold DMEM/BSA and twice with cold PBS (pH 7.5) containing 1.6M NaCl. […] Non-specific binding was determined in the presence of a 100-fold excess of unlabeled bFGF.
First we utilized a cell-free system, measuring the binding of radiolabeled bFGF to a dimeric soluble FGFR-1 fused to alkaline phosphatase. The soluble FRAP was immobilized using an anti-alkaline phosphatase antibody prebound to agarose-protein A beads (see Methods, section (iii)). As a: second experimental model, we used CHO cells deficient in heparan sulfate and genetically engineered to express FGFR-1 (Methods, section (iv)).

soluble FGFR-1 (FRAP) = target: T1, soluble FGFR-1 (FRAP) (Mus musculus, UniProt P16092); assay: Binding of 125I-bFGF to immobilized soluble FGFR-1 (FRAP), cell-free
T1 sequence (P16092 22-376 limits assumed): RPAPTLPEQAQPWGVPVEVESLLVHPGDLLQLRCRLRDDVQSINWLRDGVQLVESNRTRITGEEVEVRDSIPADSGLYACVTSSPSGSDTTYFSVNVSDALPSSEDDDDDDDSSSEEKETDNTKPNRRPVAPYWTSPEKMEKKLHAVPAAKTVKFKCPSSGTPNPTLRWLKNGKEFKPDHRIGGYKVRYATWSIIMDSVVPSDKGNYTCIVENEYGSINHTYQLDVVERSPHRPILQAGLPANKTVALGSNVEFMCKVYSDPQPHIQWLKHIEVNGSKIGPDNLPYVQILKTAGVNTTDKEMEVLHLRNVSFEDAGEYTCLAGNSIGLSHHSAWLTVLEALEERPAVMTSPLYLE
Description: First we utilized a cell-free system, measuring the binding of radiolabeled bFGF to a dimeric soluble FGFR-1 fused to alkaline phosphatase. […] As a: second experimental model, we used CHO cells deficient in heparan sulfate and genetically engineered to express FGFR-1 (Methods, section (iv)).

[1] = tested on: Lewis lung carcinoma (LLC) lung metastasis; assay: Lewis lung carcinoma lung metastasis model; format: in vivo, C57 black mice; design: Inhibitory activity in vivo, LLC tumor model (as % of total inhibition): reference not given here; conditions: for Inhibitory activity in vivo, LLC tumor model (as % of total inhibition): 25 μg/gram, LLC murine tumor model, lung metastasis
Protocol: (vii) Lewis lung carcinoma tumor assay. Murine Lewis lung carcinoma (LLC) D122 cells (1×10^6 cells/[…] PBS) were injected into the foot pads of 10-week old C57 black mice (O'Reilly et al, 1994). Twenty five μg/g of body mass of porphyrin or corrole compound dissolved in PBS were injected IP twice a week to the treated group, and tumor size was measured periodically in order to follow primary tumor formation. In order to evaluate inhibition of lung metastasis by porphyrin or corrole compound, the primary tumors were allowed to develop over a period of six weeks to a volume of approximately 8 mm^3; after which the tumors were removed and metastases were allowed to develop for four weeks. During this time the treated group received 25 μg/g of body mass of porphyrin or corrole compound IP twice a week. Subsequently the mice were sacrificed, dissected and the lungs removed and photographed. The extent of lung metastasis was measured by weighing the lungs.
After establishing the capacity of P1 to inhibit primary tumor growth, the capacity of P1 to inhibit lung metastasis formation was measured as described in Methods, section (vi). Mice were injected with LLC cells (200,000 cells per mouse) into the foot pad and primary tumors were allowed to develop over a period of 3 to 4 weeks to a volume of approximately 8 mm^3. Subsequently, primary tumors were removed through amputation and lung metasases were allowed to develop for four weeks before the mice were sacrificed. The extent of lung metastasis at this point was examined by gross morphological examination and by determining the gain in lung weight. […] In order to quantitate the results from these experiments, the lungs from all mice were weighed and evaluated for the extent of metastatic growth.

FGFR-3 = target: T2, FGFR-3 (Homo sapiens, UniProt P22607); assay: FGFR-3 tyrosine phosphorylation immunoblot (FGF-9 induced); format: cell-based; conditions: FIG. 14
T2 construct: expressed in transfected cells; host or cells: CHO cells (mutant 745)
T2 sequence (P22607 23-806, species assumed): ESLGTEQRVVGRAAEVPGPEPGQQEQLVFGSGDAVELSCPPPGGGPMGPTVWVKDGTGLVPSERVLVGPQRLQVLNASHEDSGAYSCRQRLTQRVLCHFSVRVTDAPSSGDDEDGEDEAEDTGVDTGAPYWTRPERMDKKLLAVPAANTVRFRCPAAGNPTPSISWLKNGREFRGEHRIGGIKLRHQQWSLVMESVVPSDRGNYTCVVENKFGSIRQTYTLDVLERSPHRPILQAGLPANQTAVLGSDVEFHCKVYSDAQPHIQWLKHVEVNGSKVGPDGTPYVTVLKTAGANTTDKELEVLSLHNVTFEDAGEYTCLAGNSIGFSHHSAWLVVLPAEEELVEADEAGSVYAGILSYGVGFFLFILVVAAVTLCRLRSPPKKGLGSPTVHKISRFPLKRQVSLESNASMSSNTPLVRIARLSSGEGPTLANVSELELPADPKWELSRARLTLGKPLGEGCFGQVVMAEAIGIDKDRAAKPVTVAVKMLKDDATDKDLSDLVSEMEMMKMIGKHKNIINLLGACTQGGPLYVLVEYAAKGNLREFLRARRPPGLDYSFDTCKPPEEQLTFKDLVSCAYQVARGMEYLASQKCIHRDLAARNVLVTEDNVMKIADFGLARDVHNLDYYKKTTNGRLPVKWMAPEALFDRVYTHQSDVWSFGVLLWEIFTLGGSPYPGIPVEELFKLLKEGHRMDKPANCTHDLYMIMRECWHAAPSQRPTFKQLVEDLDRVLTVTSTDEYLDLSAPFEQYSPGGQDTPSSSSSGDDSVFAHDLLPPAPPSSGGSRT
Protocol: (viii) Immunoblots. To the overnight serum-starved cells (2 plates for each treatment), 500 μl of F12^++ medium were added which either contained or not the respective porphyrin or corrole compound in a final concentration of […] for 40 min at 37° C. One of the two plates of each treatment was then stimulated with FGF9 (+) (75 ng/ml) and to the second plate only medium (−) was added for 10 min at 37° C. The cells were washed twice with PBS. 600 μl of SBN lysis buffer containing 1% NP-40 and 1 mM vanadate were added and left on ice for 10 min. The plates were then scraped and left on ice for additional 10 min. The lysate was span down in Eppendorf centrifuge for 15 min, 15000 rpm at 4° C. The supernatants were kept and Bradford protein determinant on assay was performed in the samples. 500 μg protein from each sample were taken for immunoprecipitation with 7.5 μl antibody against FGFR-3, 4 hr at 4° C.
In order to measure the ability of the porphyrins to inhibit the receptor activation on an enzymatic level as well, FGFR-3 tyrosine phosphorylation was measured in the presence of P16, as described in Methods, section (viii).

[2] = tested on: FGFR-3 expressing CHO cells; assay: FGF-9 induced mitogenic activity (DNA synthesis) of FGFR-3 expressing CHO cells; format: cell-based; conditions: FIG. 13
Protocol: CHO cells genetically engineered to express FGFR-3 were grown in the presence of increasing concentrations of porphyrins P1 and P16 in order to determine the ability of the porphyrins to inhibit FGF-9 induced DNA synthesis.
CHO cells genetically engineered to express FGFR-3 were used in order to determine the ability of the porphyrins P1 and P16 to inhibit biological activity of FGFR3 as measured by the level of DNA synthesis induced by FGF-9.

[3] = target: T3, FGFR-1 alkaline phosphatase fusion protein (FRAP) (Mus musculus, UniProt P16092); assay: Binding of soluble FGFR-1 alkaline phosphatase fusion protein (FRAP) to bFGF immobilized on heparin (Screen AP assay)
T3 construct: soluble FGFR-1 ectodomain alkaline phosphatase fusion protein (FRAP); made in house; host or cells: NIH 3T3 cells (conditioned medium)
T3 sequence (P16092 22-376 limits assumed): T1 sequence (P16092 22-376 limits assumed)
Protocol: (ii) Binding of soluble FGFR-1 alkaline phosphatase fusion protein (FRAP) to immobilized bFGF. […] The end-point of the assay measured enzymatically the formation of FGF-receptor complexes quantitated by the specifically associated alkaline phosphatase (AP) catalyzed chromogenic product.
Subsequently, 200 μl of FRAP condition medium and porphyrin/corrole compound were added and incubated together for 2 h.
In order to identify inhibitors of FGF-FGFR interactions, an assay for testing FGFR-ligand binding was developed. The system is composed of bFGF bound to a heparin matrix to which soluble FGFR-1 ectodomain alkaline phosphatase fusion protein (FRAP) and the screened compounds are added (see Methods, section (ii)).

FGFR-1, sequence (P16092 22-822): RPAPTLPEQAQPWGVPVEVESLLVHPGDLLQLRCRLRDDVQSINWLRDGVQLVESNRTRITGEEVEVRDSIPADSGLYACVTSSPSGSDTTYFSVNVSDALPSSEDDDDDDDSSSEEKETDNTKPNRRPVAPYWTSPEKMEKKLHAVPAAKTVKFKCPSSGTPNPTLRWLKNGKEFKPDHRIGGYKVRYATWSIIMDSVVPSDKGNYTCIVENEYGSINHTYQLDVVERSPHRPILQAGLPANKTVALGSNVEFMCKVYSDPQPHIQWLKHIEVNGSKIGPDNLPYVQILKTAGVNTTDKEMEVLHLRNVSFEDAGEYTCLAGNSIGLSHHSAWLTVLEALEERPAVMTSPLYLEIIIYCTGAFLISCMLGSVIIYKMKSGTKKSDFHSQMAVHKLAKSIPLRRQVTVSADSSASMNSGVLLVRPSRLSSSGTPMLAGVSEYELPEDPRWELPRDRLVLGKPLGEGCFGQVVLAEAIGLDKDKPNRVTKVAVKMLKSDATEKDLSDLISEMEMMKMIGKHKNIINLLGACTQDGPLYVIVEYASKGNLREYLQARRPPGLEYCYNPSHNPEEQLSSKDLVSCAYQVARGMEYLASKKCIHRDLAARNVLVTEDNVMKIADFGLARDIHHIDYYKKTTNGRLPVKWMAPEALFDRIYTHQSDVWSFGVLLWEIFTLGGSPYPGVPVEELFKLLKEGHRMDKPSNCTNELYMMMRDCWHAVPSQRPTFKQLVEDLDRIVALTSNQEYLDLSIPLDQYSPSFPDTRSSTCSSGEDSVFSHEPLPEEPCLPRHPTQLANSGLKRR

IC50 (FGFR-1; read-out: Cellular receptor binding (IC50), binding of FGF to FGFR, Methods section (iv)) [nM]	IC50 (soluble FGFR-1 (FRAP); read-out: Soluble receptor binding (IC50), binding of FGF to FGFR, Methods section (iii)) [nM]	Structure (SMILES)	Inhibitory activity in vivo, LLC tumor model (as % of total inhibition) [1] [%]	Effect on FGFR-3 tyrosine phosphorylation (FGFR-3)	Effect on cell proliferation induced by FGF-9 [2]	IC50 (FGFR-1; Cellular receptor binding (IC50), binding of FGF to FGFR, Methods section (iv)) [nM]	IC50 (FGFR-1; IC50, bFGF binding in the cellular receptor system, FIG. 1C) [nM]	IC50 (soluble FGFR-1 (FRAP); IC50, bFGF-FGFR1 binding in the soluble receptor (FRAP) assay, FIG. 1B) [nM]	IC50 (soluble FGFR-1 (FRAP); Soluble receptor binding (IC50), binding of FGF to FGFR, Methods section (iii)) [nM]	IC50 ([3]; FIG. 1A, read-out: IC50, inhibition of FRAP binding to bFGF immobilized on heparin matrix (converted)) [nM]	IC50 ([3]; IC50, inhibition of binding of soluble FGFR-1 to bFGF immobilized on heparin, text of detailed description) [nM]	IC50 ([3]; binding of FGF to FGFR, Methods section (ii), read-out: Screen AP assay (IC50)) [nM]	Inhibition of lung metastasis in LLC model, in words ([1]; 25 μg/g of body mass IP)	Lung weight ([1]; P1 25 μg/g of body mass, FIG. 7)
20	10	C[n+]1ccc(-c2c3nc(c(-c4cc[n+](C)cc4)c4ccc([nH]4)c(-c4c(F)c(F)c(F)c(F)c4F)c4nc(c(-c5cc[n+](C)cc5)c5ccc2[nH]5)C=C4)C=C3)cc1.[I-].[I-].[I-] [Compound P16, 5-Pentafluorophenyl-10,15,20-tris(N-methyl-4-pyridylium)-21H,23H-porphine triiodide]	60	reduced both the basal and, to a much greater extent, the FGF-9 induced phosphorylation of FGFR-3	strong inhibitory effect									
		C[n+]1ccc(-c2c3nc(c(-c4cc[n+](C)cc4)c4ccc([nH]4)c(-c4cc[n+](C)cc4)c4nc(c(-c5cc[n+](C)cc5)c5ccc2[nH]5)C=C4)C=C3)cc1 [Compound P1, 5,10,15,20-Tetrakis(N-methyl-4-pyridylium)-21H,23H-porphine tetra-p-tosylate]	100		strong inhibitory effect	1500	~2500	~1000	750	133	90000	75	no metastatic phenotype; also recorded: nearly total inhibition of the metastatic phenotype	around 200 mg

— patent US6730666B1, “Pharmaceutical compositions comprising porphyrins and some novel porphyrin derivatives” (Yeda Research and Development Co. Ltd., priority 1998, dated 2004)
